Test results reported in the supplement of paper PMC10307832.

Experiments:
Assay in all cases: relative viability (nuclei count vs DMSO), 5 days (fraction); higher = more cells survive
Elesclomol + Trametinib = compound: CN(NC(=O)CC(=O)NN(C)C(=S)c1ccccc1)C(=S)c1ccccc1 [Elesclomol] + CC(=O)Nc1cccc(-n2c(=O)n(C3CC3)c(=O)c3c(Nc4ccc(I)cc4F)n(C)c(=O)c(C)c32)c1 [Trametinib] (partner 0.02 µM)
In short: (§1)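 Lung cancer cell lines were pin-tool dosed in 1536-well plates on the day after seeding, with either a lone drug or a fixed anchor-drug dose plus five library-drug doses (not always all listed) in √10 steps. Nuclei were counted on 4× images after 5 days. Relative viability is the ratio of treated-well to vehicle-well nuclei counts, with each value a median of duplicate plates.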

Elesclomol + Palbociclib = compound: CN(NC(=O)CC(=O)NN(C)C(=S)c1ccccc1)C(=S)c1ccccc1 [Elesclomol] + CC(=O)c1c(C)c2cnc(Nc3ccc(N4CCNCC4)cn3)nc2n(C2CCCC2)c1=O [Palbociclib] (partner 0.5 µM)
In short: as §1

Elesclomol + Tozasertib = compound: CN(NC(=O)CC(=O)NN(C)C(=S)c1ccccc1)C(=S)c1ccccc1 [Elesclomol] + Cc1cc(Nc2cc(N3CCN(C)CC3)nc(Sc3ccc(NC(=O)C4CC4)cc3)n2)n[nH]1 [Tozasertib] (partner 0.1 µM)
In short: as §1

Elesclomol + Dasatinib = compound: CN(NC(=O)CC(=O)NN(C)C(=S)c1ccccc1)C(=S)c1ccccc1 [Elesclomol] + Cc1nc(Nc2ncc(C(=O)Nc3c(C)cccc3Cl)s2)cc(N2CCN(CCO)CC2)n1 [Dasatinib] (partner 0.075 µM)
In short: as §1

Elesclomol + AZD7762 = compound: CN(NC(=O)CC(=O)NN(C)C(=S)c1ccccc1)C(=S)c1ccccc1 [Elesclomol] + NC(=O)Nc1cc(-c2cccc(F)c2)sc1C(=O)N[C@H]1CCCNC1 [AZD7762] (partner 0.2 µM)
In short: as §1

Cell Line	relative viability (Elesclomol + Trametinib; first compound 0.003162 µM)	relative viability (Elesclomol + Trametinib; first compound 0.01 µM)	relative viability (Elesclomol + Trametinib; first compound 0.03162 µM)	relative viability (Elesclomol + Trametinib; first compound 0.1 µM)	relative viability (Elesclomol + Palbociclib; first compound 0.003162 µM)	relative viability (Elesclomol + Palbociclib; first compound 0.01 µM)	relative viability (Elesclomol + Palbociclib; first compound 0.03162 µM)	relative viability (Elesclomol + Palbociclib; first compound 0.1 µM)	relative viability (Elesclomol + Tozasertib; first compound 0.003162 µM)	relative viability (Elesclomol + Tozasertib; first compound 0.01 µM)	relative viability (Elesclomol + Tozasertib; first compound 0.03162 µM)	relative viability (Elesclomol + Tozasertib; first compound 0.1 µM)	relative viability (Elesclomol + Dasatinib; first compound 0.003162 µM)	relative viability (Elesclomol + Dasatinib; first compound 0.01 µM)	relative viability (Elesclomol + Dasatinib; first compound 0.03162 µM)	relative viability (Elesclomol + Dasatinib; first compound 0.1 µM)	relative viability (Elesclomol + AZD7762; first compound 0.003162 µM)	relative viability (Elesclomol + AZD7762; first compound 0.01 µM)	relative viability (Elesclomol + AZD7762; first compound 0.03162 µM)	relative viability (Elesclomol + AZD7762; first compound 0.1 µM)
201T	0.707	0.749	0.742	0.682	0.349	0.358	0.354	0.372	0.984	0.88	0.911	0.536	0.535	0.587	0.543	0.236	0.558	0.628	0.564	0.598
NCI-H3122	0.23	0.21	0.216	0.0967	0.161	0.205	0.167	0.105	0.329	0.118	0.0927	0.0898	0.836	0.947	0.587	0.0775	0.97	0.972	0.912	0.0974
NCI-H727	0.412	0.362	0.394	0.376	0.633	0.494	0.676	0.497	0.661	0.357	0.424	0.249	0.319	0.242	0.128	0.0864	0.569	0.683	0.572	0.346
NCI-H441	0.498	0.456	0.418	0.0766	0.253	0.22	0.126	0.081	0.546	0.794	0.332	0.1	0.547	0.656	0.451	0.0877	1.14	1.07	1.02	0.203
HOP-62	0.397	0.385	0.386	0.237	0.461	0.333	0.305	0.144	0.359	0.305	0.277	0.141	0.678	0.638	0.458	0.213	0.545	0.576	0.389	0.104
RERF-LC-KJ	0.753	0.536	0.572	0.28	0.911	0.714	0.581	0.288	0.264	0.239	0.208	0.116	0.37	0.326	0.255	0.157	1	0.868	0.741	0.297
LCLC-103H	0.637	0.671	0.686	0.683	0.482	0.481	0.471	0.517	0.477	0.377	0.426	0.202	0.498	0.344	0.533	0.399	0.817	0.639	0.863	0.692
NCI-H1915	0.301	0.242	0.305	0.118	0.517	0.381	0.489	0.206	0.412	–	0.397	0.258	0.337	–	0.317	0.21	0.716	0.663	0.659	0.368
ChaGo-K-1	0.932	0.802	0.571	0.15	0.875	0.882	0.568	0.154	0.223	0.177	0.147	0.163	0.609	0.458	0.214	0.116	0.88	0.715	0.416	0.139
PC-14	0.206	0.0608	0.0204	0.0164	0.317	0.0274	0.02	0.0209	0.502	0.0652	0.0256	0.0175	0.0703	0.0327	0.0099	0.0111	0.488	0.107	0.055	0.0324
NCI-H1437	0.504	0.424	0.339	0.275	0.3	0.247	0.257	0.208	0.348	0.344	0.252	0.23	0.246	0.18	0.116	0.128	0.938	0.644	0.547	0.594
NCI-H1734	0.674	0.511	0.151	0.0873	0.334	0.326	0.132	0.105	0.276	0.24	0.126	0.0951	0.473	0.421	0.144	0.113	0.518	0.45	0.145	0.0601
LK-2	0.468	0.454	0.428	0.115	–	0.717	0.695	0.0756	0.172	0.166	0.153	0.12	0.275	0.367	0.23	0.105	–	0.37	0.279	0.0458
HCC-15	0.351	0.42	0.345	0.158	0.714	0.629	0.518	0.12	0.358	0.292	0.204	0.159	0.533	0.386	0.169	0.0668	1.15	1.3	1.13	0.632
HCC-366	0.383	0.311	0.114	0.0129	0.393	0.393	0.0812	0.0176	0.158	0.0679	0.0952	0.0212	0.596	0.624	0.542	0.029	0.312	0.255	0.393	0.0195
NCI-H650	1.02	0.709	0.265	0.191	0.328	0.292	0.174	0.133	0.737	0.351	0.222	0.192	0.535	0.341	0.227	0.24	1.23	0.848	0.387	0.23
